The test system of the series is CCRIS mutagenicity, Ames/micronucleus/aberration tests. The series is described as follows: CCRIS mutagenicity studies.
[1] abbreviates: Test System: AMES SALMONELLA TYPHIMURIUM, Strain/Indicator: TA98, Metabolic Activation: NONE, Method: PREINCUBATION
The mark [2] stands for this setting: Test System: AMES SALMONELLA TYPHIMURIUM, Strain/Indicator: TA100, Metabolic Activation: NONE, Method: PREINCUBATION
[3] abbreviates: Test System: AMES SALMONELLA TYPHIMURIUM, Strain/Indicator: TA1535, Metabolic Activation: NONE, Method: PREINCUBATION
The mark [4] stands for this setting: Test System: AMES SALMONELLA TYPHIMURIUM, Strain/Indicator: TA1537, Metabolic Activation: NONE, Method: PREINCUBATION
Setting [5] is: Test System: AMES SALMONELLA TYPHIMURIUM, Strain/Indicator: TA98, Metabolic Activation: NONE, Method: STANDARD PLATE.
The mark [6] stands for this setting: Test System: AMES SALMONELLA TYPHIMURIUM, Strain/Indicator: TA100, Metabolic Activation: NONE, Method: STANDARD PLATE.

Activity calls are given as the source filed them. The rule behind the calls is not given here.

For `CCCCCCOC(=O)c1ccccc1C(=O)OCCCCCC`, the mutagenic call by setting is: (Test System: AMES SALMONELLA TYPHIMURIUM, Strain/Indicator: TA98, Metabolic Activation: HAMSTER, LIVER, S-9, AROCLOR 1254 (10%), Method: PREINCUBATION) “inactive; negative”; under setting [1], “inactive; negative”; (Test System: AMES SALMONELLA TYPHIMURIUM, Strain/Indicator: TA98, Metabolic Activation: RAT, LIVER, S-9, AROCLOR 1254 (10%), Method: PREINCUBATION) “inactive; negative”; (Test System: AMES SALMONELLA TYPHIMURIUM, Strain/Indicator: TA100, Metabolic Activation: HAMSTER, LIVER, S-9, AROCLOR 1254 (10%), Method: PREINCUBATION) “inactive; negative”; under setting [2], “inactive; negative”; (Test System: AMES SALMONELLA TYPHIMURIUM, Strain/Indicator: TA100, Metabolic Activation: RAT, LIVER, S-9, AROCLOR 1254 (10%), Method: PREINCUBATION) “inactive; negative”. The mutagenic call was “inactive; negative” (Test System: AMES SALMONELLA TYPHIMURIUM, Strain/Indicator: TA1535, Metabolic Activation: HAMSTER, LIVER, S-9, AROCLOR 1254 (10%), Method: PREINCUBATION); “inactive; negative” under setting [3]; “inactive; negative” (Test System: AMES SALMONELLA TYPHIMURIUM, Strain/Indicator: TA1535, Metabolic Activation: RAT, LIVER, S-9, AROCLOR 1254 (10%), Method: PREINCUBATION); “inactive; negative” (Test System: AMES SALMONELLA TYPHIMURIUM, Strain/Indicator: TA1537, Metabolic Activation: HAMSTER, LIVER, S-9, AROCLOR 1254 (10%), Method: PREINCUBATION); “inactive; negative” under setting [4]; “inactive; negative” (Test System: AMES SALMONELLA TYPHIMURIUM, Strain/Indicator: TA1537, Metabolic Activation: RAT, LIVER, S-9, AROCLOR 1254 (10%), Method: PREINCUBATION).
In the case of `CCOC(=O)C1=C(C)NC(C)=C(C(=O)OCC2COC3(CCCC3)O2)C1c1cccc(Cl)c1` (stereo not given), the mutagenic call runs as follows: (Test System: AMES SALMONELLA TYPHIMURIUM, Strain/Indicator: TA97, Metabolic Activation: NONE, Method: STANDARD PLATE) “inactive; negative”; (Test System: AMES SALMONELLA TYPHIMURIUM, Strain/Indicator: TA97, Metabolic Activation: RAT, LIVER, S-9, Method: STANDARD PLATE) “inactive; negative”; under setting [5], “inactive; negative”; (Test System: AMES SALMONELLA TYPHIMURIUM, Strain/Indicator: TA98, Metabolic Activation: RAT, LIVER, S-9, Method: STANDARD PLATE) “inactive; negative”; under setting [6], “inactive; negative”; (Test System: AMES SALMONELLA TYPHIMURIUM, Strain/Indicator: TA100, Metabolic Activation: RAT, LIVER, S-9, Method: STANDARD PLATE) “inactive; negative”. The mutagenic call is “inactive; negative” (Test System: AMES SALMONELLA TYPHIMURIUM, Strain/Indicator: TA102, Metabolic Activation: NONE, Method: STANDARD PLATE); “inactive; negative” (Test System: AMES SALMONELLA TYPHIMURIUM, Strain/Indicator: TA102, Metabolic Activation: RAT, LIVER, S-9, Method: STANDARD PLATE); “inactive; negative” (Test System: CHINESE HAMSTER V-79, Strain/Indicator: V-79 (HPRT)/6-THIOGUANINE, Metabolic Activation: NONE).
In the case of `CN1CCc2cc3c(c4c2[C@H]1Cc1ccccc1-4)OCO3`, the mutagenic call is “active; positive” (Test System: AMES SALMONELLA TYPHIMURIUM, Strain/Indicator: TA98, Metabolic Activation: RAT, LIVER, S-9, PHENOBARBITAL AND BETA-NAPHTHOFLAVONE, Method: PREINCUBATION) and “active; positive” (Test System: AMES SALMONELLA TYPHIMURIUM, Strain/Indicator: TA100, Metabolic Activation: RAT, LIVER, S-9, PHENOBARBITAL AND BETA-NAPHTHOFLAVONE, Method: PREINCUBATION).
In the case of `CC1CCC(C(C)CS)CC1S` (stereo not given), the mutagenic call reads like this: (Test System: AMES SALMONELLA TYPHIMURIUM, Strain/Indicator: TA98, Metabolic Activation: HAMSTER, LIVER, S-9, AROCLOR 1254, Method: PREINCUBATION) “inactive; negative”; under setting [1], “inactive; negative”; (Test System: AMES SALMONELLA TYPHIMURIUM, Strain/Indicator: TA98, Metabolic Activation: RAT, LIVER, S-9, AROCLOR 1254, Method: PREINCUBATION) “inactive; negative”; (Test System: AMES SALMONELLA TYPHIMURIUM, Strain/Indicator: TA100, Metabolic Activation: HAMSTER, LIVER, S-9, AROCLOR 1254, Method: PREINCUBATION) “inactive; negative”; under setting [2], “inactive; negative”; (Test System: AMES SALMONELLA TYPHIMURIUM, Strain/Indicator: TA100, Metabolic Activation: RAT, LIVER, S-9, AROCLOR 1254, Method: PREINCUBATION) “inactive; negative”. Also, the mutagenic call was “inactive; negative” (Test System: AMES SALMONELLA TYPHIMURIUM, Strain/Indicator: TA1535, Metabolic Activation: HAMSTER, LIVER, S-9, AROCLOR 1254, Method: PREINCUBATION); “inactive; negative” under setting [3]; “inactive; negative” (Test System: AMES SALMONELLA TYPHIMURIUM, Strain/Indicator: TA1535, Metabolic Activation: RAT, LIVER, S-9, AROCLOR 1254, Method: PREINCUBATION); “inactive; negative” (Test System: AMES SALMONELLA TYPHIMURIUM, Strain/Indicator: TA1537, Metabolic Activation: HAMSTER, LIVER, S-9, AROCLOR 1254, Method: PREINCUBATION); “inactive; negative” under setting [4]; “inactive; negative” (Test System: AMES SALMONELLA TYPHIMURIUM, Strain/Indicator: TA1537, Metabolic Activation: RAT, LIVER, S-9, AROCLOR 1254, Method: PREINCUBATION).
For `O=[N+]([O-])c1ccc2c(ccc3ccccc32)c1`, the mutagenic call was “active; positive” (Test System: AMES SALMONELLA TYPHIMURIUM, Strain/Indicator: TA98(1,8-DNP6), Metabolic Activation: NONE, Method: STANDARD PLATE); “active; positive” (Test System: AMES SALMONELLA TYPHIMURIUM, Strain/Indicator: TA98(NR), Metabolic Activation: NONE, Method: STANDARD PLATE); “active; positive” under setting [1]; “active; positive” under setting [5]; “active; positive” (Test System: AMES SALMONELLA TYPHIMURIUM, Strain/Indicator: TA98, Metabolic Activation: RAT, LIVER, S-9, PCB (10%), Method: PREINCUBATION); “active; positive” (Test System: AMES SALMONELLA TYPHIMURIUM, Strain/Indicator: TA7001, Metabolic Activation: NONE, Method: PREINCUBATION). Besides, the mutagenic call (Test System: AMES SALMONELLA TYPHIMURIUM, Strain/Indicator: TA7002, Metabolic Activation: NONE, Method: PREINCUBATION) was “active; positive”; the mutagenic call (Test System: AMES SALMONELLA TYPHIMURIUM, Strain/Indicator: TA7003, Metabolic Activation: NONE, Method: PREINCUBATION) is “active; positive”; the mutagenic call (Test System: AMES SALMONELLA TYPHIMURIUM, Strain/Indicator: TA7004, Metabolic Activation: NONE, Method: PREINCUBATION) was “active; positive”; the mutagenic call (Test System: AMES SALMONELLA TYPHIMURIUM, Strain/Indicator: TA7005, Metabolic Activation: NONE, Method: PREINCUBATION) was “active; positive”; the mutagenic call (Test System: AMES SALMONELLA TYPHIMURIUM, Strain/Indicator: TA7006, Metabolic Activation: NONE, Method: PREINCUBATION) was “active; positive”.
Take `C[C@]12C=CC(=O)C=C1CC[C@@H]1[C@@H]2[C@@H](O)C[C@@]2(C)[C@H]1CC[C@]2(O)C(=O)CO`: the mutagenic call runs as follows: under setting [1], “inactive; negative”; (Test System: AMES SALMONELLA TYPHIMURIUM, Strain/Indicator: TA98, Metabolic Activation: S-9, Method: PREINCUBATION) “inactive; negative”; under setting [2], “inactive; negative”; (Test System: AMES SALMONELLA TYPHIMURIUM, Strain/Indicator: TA100, Metabolic Activation: S-9, Method: PREINCUBATION) “inactive; negative”; (Test System: MOUSE LYMPHOMA, Strain/Indicator: L5178Y (TK+/TK-), Metabolic Activation: NONE, Method: SUSPENSION/PLATE) “inactive; negative”; (Test System: MOUSE LYMPHOMA, Strain/Indicator: L5178Y (TK+/TK-), Metabolic Activation: RAT, LIVER, S-9, AROCLOR 1254, Method: SUSPENSION/PLATE) “active; positive”.
In the case of `ClCc1cccc2c1-c1cccc3cccc-2c13`, the mutagenic call is, setting by setting: under setting [5], “active; positive”; under setting [6], “active; positive”.
Consider `CCCCN(CCO)N=O`, for which the mutagenic call (Test System: AMES SALMONELLA TYPHIMURIUM, Strain/Indicator: TA1535, Metabolic Activation: RAT, LIVER, S-9, KC500 OR PHENOBARBITAL, Method: LIQUID SUSPENSION) is “active; positive”.
